Reference: ChEMBL document CHEMBL3758102, “Serrulatane Diterpenoid from Eremophila neglecta Exhibits Bacterial Biofilm Dispersion and Inhibits Release of Pro-inflammatory Cytokines from Activated Macrophages” (J Nat Prod, 2015)
In brackets after ≈: the same amount, converted by molar mass. Activity calls are given as the source filed them. The rule behind the calls is not given here.

Assays:
[1] = tested on: Staphylococcus epidermidis; test: (§1) Antibiofilm activity against Staphylococcus epidermidis ATCC 35984 assessed as 12 hrs pre-established supernatant viable cell count at 0.02 umol/mesh after 20 hrs by […] using compound impregnated in polypropylene mesh (Rvb =7.7 x 10^8 CFU/ml); assay type: functional
[2] = tested on: Staphylococcus epidermidis; test: Antibiofilm activity against Staphylococcus epidermidis ATCC 35984 assessed as 6 hrs pre-established biofilm viable cell count after 20 hrs (reference value: 8.3 x 10^9 CFU/ml); assay type: functional
Staphylococcus aureus [3] = test: Antibiofilm activity against Staphylococcus aureus ATCC 35556 assessed as inhibition of 24 hrs pre-established biofilm formation at 0.064 umol/well after 20 hrs by safranin staining-based method; assay type: functional, organism-based
[4] = Cytotoxicity against C57Bl/6 mouse BMDM cells assessed as cell viability at <=80 uM after 72 hrs by MTS assay; assay type: cell-based, C57BI/6
Escherichia coli = test: Antibacterial activity against Escherichia coli ATCC 25922 at 658 uM incubated overnight by broth microdilution method; assay type: functional, organism-based
Staphylococcus aureus [5] = test: Antibacterial activity against Staphylococcus aureus ATCC 29213 incubated overnight by broth microdilution method; assay type: functional
[6] = tested on: Staphylococcus epidermidis; test: as §1, with “biofilm” for “supernatant”, “0.01” for “0.02”, “(reference value: 8.6” for “(Rvb =7.7”, “10^9” for “10^8”; assay type: functional
BMDM [7] = test: Inhibition of IL-6 production in C57Bl/6 mouse BMDM cells at 5 uM pretreated prior to LPS-stimulation measured on day 7 by ELISA; assay type: functional, cell-based; details: C57BI/6
[8] = tested on: Staphylococcus epidermidis; test: Antibiofilm activity against Staphylococcus epidermidis ATCC 35984 assessed as inhibition of 12 hrs pre-established biofilm formation at 0.064 umol/well after 20 hrs by visible spectrometric analysis; assay type: functional, organism-based
Pseudomonas aeruginosa = test: Antibacterial activity against Pseudomonas aeruginosa ATCC 27853 at 658 uM incubated overnight by broth microdilution method; assay type: functional, organism-based
[9] = Induction of apoptosis in C57Bl/6 mouse BMDM cells assessed as early apoptotic cells at 2.5 uM by annexin V-FITC/DAPI staining-based flow cytometric analysis (reference value: 0.49%); assay type: functional, C57BI/6
[10] = tested on: Staphylococcus epidermidis; test: Antibacterial activity against Staphylococcus epidermidis ATCC 35984 incubated overnight by broth microdilution method; assay type: functional
[11] = Induction of apoptosis in C57Bl/6 mouse BMDM cells assessed as late apoptotic cells at 2.5 uM by annexin V-FITC/DAPI staining-based flow cytometric analysis (reference value: 28.4%); assay type: functional, C57BI/6
[12] = tested on: Staphylococcus epidermidis; test: Antibiofilm activity against Staphylococcus epidermidis ATCC 35984 assessed as 12 hrs pre-established biofilm viable cell count after 20 hrs (reference value: 1.2 x 10^10 CFU/ml); assay type: functional
BMDM [13] = test: Inhibition of IL-6 production in C57Bl/6 mouse BMDM cells at 2.5 to 80 uM pretreated prior to LPS-stimulation measured on day 7 by ELISA; assay type: functional, cell-based; details: C57BI/6
BMDM [14] = test: Decrease in IL-1beta production in C57Bl/6 mouse BMDM cells at 2.5 to 80 uM pretreated for 1 hr prior to ATP-stimulation by ELISA; assay type: functional, cell-based; details: C57BI/6
[15] = Induction of apoptosis in C57Bl/6 mouse BMDM cells assessed as dead cells at 160 uM by annexin V-FITC/DAPI staining-based flow cytometric analysis (reference value: 24.4%); assay type: functional, C57BI/6
[16] = tested on: Staphylococcus epidermidis; test: (§2) Antibiofilm activity against Staphylococcus epidermidis ATCC 35984 assessed as 12 hrs pre-established supernatant viable cell count at 0.04 umol/mesh after 20 hrs by […] using compound impregnated in polypropylene mesh (Rvb =7.7 x 10^8 CFU/ml); assay type: functional
[17] = tested on: Staphylococcus epidermidis; test: as §1, with “biofilm” for “supernatant”, “0.08” for “0.02”, “(reference value: 8.6” for “(Rvb =7.7”, “10^9” for “10^8”; assay type: functional
[18] = Induction of apoptosis in C57Bl/6 mouse BMDM cells assessed as viable cells at 160 uM by annexin V-FITC/DAPI staining-based flow cytometric analysis (reference value: 46.7%); assay type: functional; details: C57BI/6, BMDM, read-out: Activity
[19] = Induction of apoptosis in C57Bl/6 mouse BMDM cells assessed as dead cells at 40 uM by annexin V-FITC/DAPI staining-based flow cytometric analysis (reference value: 24.4%); assay type: functional, C57BI/6
[20] = Induction of apoptosis in C57Bl/6 mouse BMDM cells assessed as dead cells at 2.5 uM by annexin V-FITC/DAPI staining-based flow cytometric analysis (reference value: 24.4%); assay type: functional, C57BI/6
[21] = tested on: Staphylococcus epidermidis; test: Antibiofilm activity against Staphylococcus epidermidis ATCC 35984 assessed as inhibition of 24 hrs pre-established biofilm formation at 0.064 umol/well after 20 hrs by safranin staining-based method; assay type: functional, organism-based
[22] = Induction of apoptosis in C57Bl/6 mouse BMDM cells assessed as early apoptotic cells at 160 uM by annexin V-FITC/DAPI staining-based flow cytometric analysis (reference value: 0.49%); assay type: functional, C57BI/6
BMDM [23] = test: Inhibition of IL-6 production in C57Bl/6 mouse BMDM cells at 10 uM pretreated prior to LPS-stimulation measured on day 7 by ELISA; assay type: functional, cell-based; details: C57BI/6
[24] = tested on: Staphylococcus epidermidis; test: as §2, with “biofilm” for “supernatant”, “(reference value: 8.6” for “(Rvb =7.7”, “10^9” for “10^8”; assay type: functional
BMDM [25] = test: Inhibition of IL10 production in C57Bl/6 mouse BMDM cells by ELISA; assay type: functional, cell-based; details: C57BI/6
[26] = tested on: Staphylococcus epidermidis; test: Antibiofilm activity against Staphylococcus epidermidis ATCC 35984 assessed as 24 hrs pre-established biofilm viable cell count after 20 hrs (reference value: 1.4 x 10^10 +/- 2.6 x 10^9 CFU/ml); assay type: functional
[27] = tested on: Staphylococcus epidermidis; test: Antibiofilm activity against Staphylococcus epidermidis ATCC 35984 assessed as 12 hrs pre-established supernatant viable cell count at 0.16 umol/mesh after 20 hrs by […] using compound impregnated in polypropylene mesh (Rvb =7.7 x 10^8 CFU/ml); assay type: functional

Question: What does the source list for `CC(C)=CCC[C@H](C)[C@@H]1CC[C@@H](C)c2c(O)cc(C(=O)O)cc21`?
Answer: Activity [1]: 5 ×10⁷ CFU/ml; Activity [2]: 0 CFU/ml; inhibition (Staphylococcus aureus [3]): Active; Activity [4]: Non-toxic; Activity (Escherichia coli): inactive; MBC (Staphylococcus aureus [5]): 82 µM (≈ 25.9 µg/mL); MIC (Staphylococcus aureus [5]): 82 µM (≈ 25.9 µg/mL); Activity [6]: 1.6 ×10⁹ CFU/ml; inhibition (BMDM [7]): Active; inhibition [8]: Active; Activity (Pseudomonas aeruginosa): inactive; Activity [9]: 2.54%; MBC [10]: 82 µM (≈ 25.9 µg/mL); MIC [10]: 82 µM (≈ 25.9 µg/mL); Activity [11]: 32.7%; Activity [12]: 6 ×10³ CFU/ml; inhibition (BMDM [13]): Active; Activity (BMDM [14]): inactive; Activity [15]: 0.63%; Activity [16]: 1.5 ×10⁷ CFU/ml; Activity [17]: 2.7 ×10⁵ CFU/ml; viability at 160 µM [18]: 53%; Activity [19]: 21.8%; Activity [20]: 13.3%; Activity [21]: inactive; Activity [22]: 42.5%; inhibition (BMDM [23]): inactive; Activity [24]: 6.7 ×10⁸ CFU/ml; inhibition (BMDM [25]): inactive; Activity [26]: 4.2 ×10⁸ CFU/ml; Activity [27]: 9 ×10³ CFU/ml
